Some test systems named below: MCF7 breast; MDA-N; T-47D breast; BT-549 breast.
Common to all, as to experiment: NCI-60 cell line screen, 48 h

“And” between values parts separate entries of the source, which are not always exact repeats. Identical values can stand only once.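 1) Cells in 96-well plates. 2) Compound, 48 h, 5 concentrations. 3) Linear interpolation between surrounding doses. 4) Unreached endpoint = highest concentration. GI50 is the concentration that inhibits growth by half. TGI is the concentration that stops growth completely.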

For `CC(C)(S)C(N)C(=O)O` (centres undefined), the GI50 was 994 µM in the assay with MCF7 breast, 1170 µM in the assay with T-47D breast and 1570 µM in the assay on BT-549 breast. The TGI with MCF7 breast is 2200 µM and > 100 µM; in the assay with MDA-N it was greater than 100 µM; in the assay with T-47D breast it was 2680 µM and > 100 µM; in the assay with BT-549 breast, 4110 µM and > 100 µM.
With `[N-]=[N+]=Nc1cc(=O)[nH]nc1-c1ccccc1`, the TGI with MCF7 breast, in the assay with MDA-N, in the assay on T-47D breast and in the assay on BT-549 breast was greater than 100 µM each time.
On to `C#COc1cccc(Nc2c(C#N)cnc3ncc(NC(=O)CCl)cc23)c1`, for which the GI50 with MCF7 breast was 12.8 µM; with T-47D breast, 23.3 µM; with BT-549 breast, greater than 62.5 µM. Also, the TGI in the assay with MCF7 breast, in the assay on T-47D breast and in the assay on BT-549 breast was greater than 62.5 µM in each case.
Regarding `CCOC(=O)/C=C(/C)Sc1cc(O)c2ccccc2c1O`, the GI50 with MCF7 breast is 1.54 µM; in the assay with T-47D breast, 2.23 µM; in the assay on BT-549 breast, 2.93 µM. For the same molecule, the TGI turned out to be 3.59 µM in the assay with MCF7 breast, 13.1 µM in the assay on T-47D breast and 10.5 µM with BT-549 breast.
With `c1ccc2nc3c(nc2c1)sc1ccccc13`, the TGI with MCF7 breast, in the assay on T-47D breast and in the assay on BT-549 breast was greater than 100 µM throughout.
As for `C1=C\COCc2cc(ccc2OCCN2CCCC2)Nc2nccc(n2)-c2cccc(c2)COC/1`, the GI50 was 0.772 µM with MCF7 breast, 1.37 µM in the assay with T-47D breast and 4.67 µM in the assay with BT-549 breast. Besides, the TGI was found to be 3.37 µM in the assay on MCF7 breast, 5.12 µM in the assay with T-47D breast and 6.66 µM in the assay with BT-549 breast.
`O=C1NC(=O)C(c2cccc([N+](=O)[O-])c2)=C1Nc1cc(Cl)c(O)c(Cl)c1`: the GI50 in the assay with MCF7 breast is greater than 25 µM; in the assay with T-47D breast it was greater than 25 µM; with BT-549 breast it was greater than 16.2 µM. Besides, the TGI in the assay on MCF7 breast, with T-47D breast and in the assay with BT-549 breast was greater than 25 µM in each case.
As to `COc1cc2c3c(n(CCCOC(=O)C(F)(F)F)c(=O)c2cc1OC)-c1cc2c(cc1C3=O)OCO2`, the TGI in the assay on MCF7 breast was greater than 29.2 µM; in the assay with T-47D breast, greater than 28.2 µM; in the assay with BT-549 breast, 68.6 µM. In addition, in the assay with BT-549 breast, the GI50 was 0.202 µM.
As for `N#Cc1c(N/N=C/c2ccc(Cl)cc2Cl)nc(N)nc1N1CCCC1`, the GI50 was greater than 100 µM in the assay on MCF7 breast, 88.4 µM in the assay with T-47D breast and greater than 100 µM with BT-549 breast. Moreover, the TGI in the assay with MCF7 breast, in the assay on T-47D breast and in the assay on BT-549 breast was greater than 100 µM in each case.
Consider `OCc1ccn2c1[C@@H](O)CC2`, for which the TGI in the assay with MCF7 breast, in the assay on MDA-N, in the assay with T-47D breast and in the assay on BT-549 breast was greater than 100 µM throughout.
Consider `COc1ccc(-c2coc3c4c(ccc3c2=O)OCO4)cc1OC`, for which the TGI in the assay on MCF7 breast, with MDA-N, in the assay on T-47D breast and in the assay with BT-549 breast was greater than 100 µM each time.
`CCn1sc2ccccc2c1=O`: the TGI with MCF7 breast worked out at 26.8 µM; in the assay on MDA-N, 8.99 µM; with T-47D breast, 35.2 µM; with BT-549 breast it was 25.7 µM.
Turning to `CCCOc1ccc2sc(NC(=O)OC)nc2c1`, the GI50 is 1.08 µM in the assay on MCF7 breast, 2.94 µM in the assay on T-47D breast and 3.81 µM in the assay with BT-549 breast. Also, the TGI with MCF7 breast, in the assay on T-47D breast and with BT-549 breast was greater than 100 µM each time.
As to `COc1ccc(O)c(C(=O)c2ccc(C(=O)N[C@H]3CCCNC[C@@H]3NC(=O)c3ccncc3)cc2)c1F`, the GI50 in the assay with MCF7 breast was 0.823 µM; in the assay on T-47D breast it was 0.463 µM; in the assay with BT-549 breast it was 1.27 µM. Also, the TGI was greater than 25 µM in the assay on MCF7 breast, greater than 25 µM with T-47D breast and 13.7 µM with BT-549 breast.
On to `CCn1c(=O)c2c(=O)c3c4c(oc3oc2c2ccccc21)C(=O)c1ccccc1C4=O`, for which the results for the GI50 with MCF7 breast, in the assay on T-47D breast and in the assay with BT-549 breast were greater than 100 µM, 0.372 µM and greater than 36 µM, respectively. Also, the TGI in the assay on MCF7 breast is greater than 100 µM; with T-47D breast, 2.87 µM; in the assay with BT-549 breast, greater than 100 µM.
With `CN(CCO)c1ccc(N2Cc3ccccc3OC3=C2C(=O)c2c(O)ccc(O)c2C3=O)cn1`, the GI50 in the assay with MCF7 breast is 0.0638 µM; in the assay with T-47D breast, 0.176 µM; in the assay with BT-549 breast it was 0.177 µM. The TGI with MCF7 breast worked out at 0.31 µM; with T-47D breast, 0.577 µM; in the assay on BT-549 breast it was 0.386 µM.
With `CC1=C(C(=O)Nc2ccc(Cl)c(Cl)c2)C(c2cccc(Oc3ccccc3)c2)NC(=O)N1` (centres undefined), in the assay on T-47D breast, the GI50 was 22.9 µM and the TGI is greater than 50 µM. Moreover, in the assay on BT-549 breast, the GI50 is 4.23 µM and the TGI was found to be 14.3 µM.
For the molecule `O=C1NC(=O)/C(=C\c2ccccc2)C2=C1CCCC2`, the GI50 is 5.15 µM with MCF7 breast, 10.2 µM in the assay on T-47D breast and 4.13 µM in the assay with BT-549 breast. Further, the TGI in the assay with MCF7 breast came to 25 µM; with T-47D breast, 29.9 µM; in the assay on BT-549 breast, 16.4 µM.
As to `COc1ccc(-n2c(C)cc(-c3ccccc3)c2C)cc1`, the figures for the GI50 with MCF7 breast, in the assay on T-47D breast and with BT-549 breast were 3.58 µM, 1.65 µM and 2.63 µM, respectively. Besides, the results for the TGI in the assay on MCF7 breast, in the assay with T-47D breast and with BT-549 breast were greater than 100 µM, 67.2 µM and 9.98 µM, respectively.
With `c1ccc2c(c1)c1c(c3ccccc32)CN2CCCC2C1` (centres undefined), the TGI in the assay on MCF7 breast was 11.4 µM; with MDA-N it was 14.2 µM; in the assay with T-47D breast, greater than 100 µM; with BT-549 breast, 53.9 µM.
For the molecule `NC(=O)OCCn1cc(-c2nc(-c3c[nH]c4ncccc34)cs2)c2ccccc21`, in the assay on MCF7 breast, the GI50 was 0.989 µM and the TGI was 5.31 µM. In the assay with BT-549 breast, the GI50 was 1.5 µM and the TGI was determined as 6.04 µM.
With `COc1ccc(-c2ccc(-c3ccc(C(=N)N)s3)s2)cc1`, in the assay with T-47D breast, the GI50 was 0.243 µM and the TGI turned out to be 0.596 µM.
With `O=C1NC(=NCCc2cccc(Cl)c2)S/C1=C\c1ccc2ncccc2c1`, the GI50 in the assay with T-47D breast and in the assay on BT-549 breast was greater than 25 µM each time. Further, the TGI with T-47D breast and with BT-549 breast was greater than 25 µM in each case.

For the origin of these results see PubChem BioAssay (NCI).
